Where a SMILES comes first, the peptide text is derived from it. Bridges are numbered along the chain shown (N, C = ends). [ ]: non-standard residue; d: D form. The star is where a group is joined. X1 = O=C(O)CCCCCCCCCCCCCCCCC(=O)N[C@@H](CCC(=O)NCCOCCOCCOCCOCCOCCOCCOCCOCCOCCOCCOCCn1cc(C*)nn1)C(=O)O; Phe(4-COOH) = N[C@@H](Cc1ccc(C(=O)O)cc1)C(=O)O; Phe(4-CH2NH2) = NCc1ccc(C[C@H](N)C(=O)O)cc1; Bip = N[C@@H](Cc1ccc(-c2ccccc2)cc1)C(=O)O; Phe(3-Me) = Cc1cccc(C[C@H](N)C(=O)O)c1; C12 diacid = O=C(O)CCCCCCCCCCC(=O)*; 4Pal = N[C@@H](Cc1ccncc1)C(=O)O; Cha = N[C@@H](CC1CCCCC1)C(=O)O; Carboxymethyl = O=C(O)C*; NMeA = CN[C@@H](C)C(=O)O; Nle = CCCC[C@H](N)C(=O)O; Orn = NCCC[C@H](N)C(=O)O; Dab = NCC[C@H](N)C(=O)O; Nva = CCC[C@H](N)C(=O)O; Abu = CC[C@H](N)C(=O)O

One assay deals with T1, human PD-1 (Jurkat-PD-1 cells; binding of PE-labeled human PD-L1-Ig) (Homo sapiens, UniProt Q15116).
T1 construct: expressed in transfected cells; host or cells: Jurkat (Jurkat-PD-1 / Jurkat-hPD-1)
T1 sequence (Q15116 25-288): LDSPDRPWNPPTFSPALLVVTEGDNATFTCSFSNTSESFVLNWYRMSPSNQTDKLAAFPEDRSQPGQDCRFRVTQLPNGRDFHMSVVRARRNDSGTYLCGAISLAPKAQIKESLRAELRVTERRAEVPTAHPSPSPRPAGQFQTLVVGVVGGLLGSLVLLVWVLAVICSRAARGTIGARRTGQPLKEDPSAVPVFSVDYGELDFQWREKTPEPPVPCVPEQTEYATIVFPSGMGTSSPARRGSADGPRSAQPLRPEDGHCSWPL
Briefly: Jurkat-PD-1 Cell Binding High-Content Screening Assay.
Details: not given
Here is the method:
The ability of the compounds of formula (I) to bind to PD-1 was investigated using a Jurkat-PD-1 Cell Binding High-Content Screening Assay.
Phycoerythrin (PE) was covalently linked to the Ig epitope tag of human PD-L1-Ig and fluorescently-labeled PD-L1-Ig was used for binding studies with a Jurkat cell line over-expressing human PD-1 (Jurkat-PD-1). Briefly, 8×10^3 Jurkat-hPD-1 cells were seeded into 384 well plates in 20 μl of DIVEM supplemented with 10% fetal calf serum. 100 nl of compound was added to cells followed by incubation at 37° C. for 2 h. Then, 5 μl of PE-labeled PD-L1-Ig (20 nM final), diluted in DiVEM supplemented with 10 fetal calf serum. After 1 hour incubation, cells were fixed with […] in dPBS containing 10 µg/mL Hoechst 33342 and then washed 3× in 100 μl dPB S. Data was collected and processed using a Cell Insight NXT High Content Imager and associated software.
In the case of `CCCC[C@@H]1NC(=O)CSC[C@@H](C(=O)N[C@@H](CCN)C(N)=O)NC(=O)[C@H](CCC(=O)O)NC(=O)[C@H](C(C)C)NC(=O)[C@H](CC2CCCCC2)NC(=O)[C@H](CCN)NC(=O)[C@@H](CC(C)C)NC(=O)[C@H](CCCN)NC(=O)[C@H](Cc2ccc(OCc3cn(CCOCCOCCOCCOCCOCCOCCOCCOCCOCCOCCOCCNC(=O)CC[C@H](NC(=O)CCCCCCCCCCCCCCCCC(=O)O)C(=O)O)nn3)cc2)NC(=O)[C@H](Cc2ccc(-c3ccccc3)cc2)NC(=O)[C@H](Cc2ccc(C(=O)O)cc2)NC(=O)[C@H](Cc2cccc(C)c2)NC(=O)[C@H](CC(=O)O)NC(=O)[C@H](Cc2ccc(C(=O)O)cc2)NC1=O` [Compound 1028] ({CH2CO}-[Nle][Phe(4-COOH)]D[Phe(3-Me)][Phe(4-COOH)][Bip]Y(X1)[Orn][dL][Dab][Cha]VEC[Dab]-NH2; thioether N-14), the IC50 (usually the midpoint of a concentration-inhibition curve) was found to be 430 nM.

The assay is the same for the next values; noted with them: Jurkat cell line over-expressing human PD-1; compound 2 h at 37° C., then PE-labeled PD-L1-Ig 20 nM final, 1 hour; read-out: Jurkat hPD1 PDL1 IC50.
Regarding `CCCC[C@@H]1NC(=O)CSC[C@@H](C(=O)N[C@@H](CCN)C(N)=O)NC(=O)[C@H](CCC(=O)O)NC(=O)[C@H](C(C)C)NC(=O)[C@H](CC2CCCCC2)NC(=O)[C@H](CCN)NC(=O)[C@@H](CC(C)C)NC(=O)[C@H](CCCN)NC(=O)[C@H](Cc2ccc(C(=O)O)cc2)NC(=O)[C@H](Cc2ccc(-c3ccccc3)cc2)NC(=O)[C@H](Cc2ccc(OCc3cn(CCOCCOCCOCCOCCOCCOCCOCCOCCOCCOCCOCCNC(=O)CC[C@H](NC(=O)CCCCCCCCCCCCCCCCC(=O)O)C(=O)O)nn3)cc2)NC(=O)[C@H](Cc2cccc(C)c2)NC(=O)[C@H](CC(=O)O)NC(=O)[C@H](Cc2ccc(C(=O)O)cc2)NC1=O` [Compound 1020] ({CH2CO}-[Nle][Phe(4-COOH)]D[Phe(3-Me)]Y(X1)[Bip][Phe(4-COOH)][Orn][dL][Dab][Cha]VEC[Dab]-NH2; thioether N-14), the IC50 amounted to 96 nM.

Turning to `CC[C@@H]1NC(=O)CSC[C@@H](C(=O)N[C@@H](CCN)C(N)=O)NC(=O)[C@H](CCC(=O)O)NC(=O)[C@H](C(C)C)NC(=O)[C@H](CC2CCCCC2)NC(=O)[C@H](CCN)NC(=O)[C@@H](CC(C)C)NC(=O)[C@H](CCCN)NC(=O)[C@H](Cc2ccc(C(=O)O)cc2)NC(=O)[C@H](Cc2ccc(-c3ccccc3)cc2)NC(=O)[C@H](Cc2ccc(OCc3cn(CCOCCOCCOCCOCCOCCOCCOCCOCCOCCOCCOCCNC(=O)CC[C@H](NC(=O)CCCCCCCCCCCCCCCCC(=O)O)C(=O)O)nn3)cc2)NC(=O)[C@H](Cc2cccc(C)c2)NC(=O)[C@H](CC(=O)O)NC(=O)[C@H](Cc2ccc(C(=O)O)cc2)NC1=O` [Compound 1021] ({CH2CO}-[Abu][Phe(4-COOH)]D[Phe(3-Me)]Y(X1)[Bip][Phe(4-COOH)][Orn][dL][Dab][Cha]VEC[Dab]-NH2; thioether N-14), the IC50 worked out at 95 nM.

In the case of `CCC[C@@H]1NC(=O)CSC[C@@H](C(=O)N[C@@H](CCN)C(N)=O)NC(=O)[C@H](CCC(=O)O)NC(=O)[C@H](C(C)C)NC(=O)[C@H](CC2CCCCC2)NC(=O)[C@H](CCN)NC(=O)[C@@H](CC(C)C)NC(=O)[C@H](CCCN)NC(=O)[C@H](Cc2ccc(C(=O)O)cc2)NC(=O)[C@H](Cc2ccc(-c3ccccc3)cc2)NC(=O)[C@H](Cc2ccc(OCc3cn(CCOCCOCCOCCOCCOCCOCCOCCOCCOCCOCCOCCNC(=O)CC[C@H](NC(=O)CCCCCCCCCCCCCCCCC(=O)O)C(=O)O)nn3)cc2)NC(=O)[C@H](Cc2cccc(C)c2)NC(=O)[C@H](CC(=O)O)NC(=O)[C@H](Cc2ccc(C(=O)O)cc2)NC1=O` [Compound 1022] ({CH2CO}-[Nva][Phe(4-COOH)]D[Phe(3-Me)]Y(X1)[Bip][Phe(4-COOH)][Orn][dL][Dab][Cha]VEC[Dab]-NH2; thioether N-14), the IC50 worked out at 54 nM.

For the compound `Cc1cccc(C[C@@H]2NC(=O)[C@H](CC(=O)O)NC(=O)[C@H](Cc3ccc(C(=O)O)cc3)NC(=O)[C@H]([C@@H](C)O)NC(=O)CSC[C@@H](C(=O)N[C@@H](CCN)C(N)=O)NC(=O)[C@H](CCC(=O)O)NC(=O)[C@H](C(C)C)NC(=O)[C@H](CC3CCCCC3)NC(=O)[C@H](CCN)NC(=O)[C@@H](CC(C)C)NC(=O)[C@H](CCCN)NC(=O)[C@H](Cc3ccc(C(=O)O)cc3)NC(=O)[C@H](Cc3ccc(-c4ccccc4)cc3)NC(=O)[C@H](Cc3ccc(OCc4cn(CCOCCOCCOCCOCCOCCOCCOCCOCCOCCOCCOCCNC(=O)CC[C@H](NC(=O)CCCCCCCCCCCCCCCCC(=O)O)C(=O)O)nn4)cc3)NC2=O)c1` [Compound 1023] ({CH2CO}-T[Phe(4-COOH)]D[Phe(3-Me)]Y(X1)[Bip][Phe(4-COOH)][Orn][dL][Dab][Cha]VEC[Dab]-NH2; thioether N-14), the IC50 came to 99 nM.

With `CCCC[C@@H]1NC(=O)CSC[C@@H](C(=O)N[C@@H](CCN)C(N)=O)NC(=O)[C@H](CCC(=O)O)NC(=O)[C@H](C(C)C)NC(=O)[C@H](CC2CCCCC2)NC(=O)[C@H](CCN)NC(=O)[C@@H](CC(C)C)NC(=O)[C@H](CCCN)NC(=O)[C@H](Cc2ccc(OCc3cn(CCOCCOCCOCCOCCOCCOCCOCCOCCOCCOCCOCCNC(=O)CC[C@H](NC(=O)CCCCCCCCCCCCCCCCC(=O)O)C(=O)O)nn3)cc2)NC(=O)[C@H](Cc2ccc(-c3ccccc3)cc2)NC(=O)[C@H](Cc2ccc(OCC(=O)O)cc2)NC(=O)[C@H](Cc2cccc(C)c2)NC(=O)[C@H](CC(=O)O)NC(=O)[C@H](Cc2ccc(OCC(=O)O)cc2)NC1=O` [Compound 1024] ({CH2CO}-[Nle]Y(Carboxymethyl)D[Phe(3-Me)]Y(Carboxymethyl)[Bip]Y(X1)[Orn][dL][Dab][Cha]VEC[Dab]-NH2; thioether N-14), the half-inhibitory concentration (IC50) was 400 nM.

Turning to `Cc1cccc(C[C@@H]2NC(=O)[C@H](CC(=O)O)NC(=O)[C@H](Cc3ccc(OCC(=O)O)cc3)NC(=O)[C@H](CCNC(=O)CCCCCCCCCCC(=O)O)NC(=O)CSC[C@@H](C(N)=O)NC(=O)[C@H]([C@@H](C)O)NC(=O)[C@H](C(C)C)NC(=O)[C@H](CC3CCCCC3)NC(=O)[C@H](CCN)NC(=O)[C@@H](CC(C)C)NC(=O)[C@H](CCCN)NC(=O)[C@H](Cc3ccc(OCC(=O)O)cc3)NC(=O)[C@H](Cc3ccc(-c4ccccc4)cc3)NC(=O)[C@H](Cc3ccc(O)cc3)NC2=O)c1` [Compound 1034] ({CH2CO}-[Dab](C12 diacid)Y(Carboxymethyl)D[Phe(3-Me)]Y[Bip]Y(Carboxymethyl)[Orn][dL][Dab][Cha]VTC-NH2; thioether N-14), the IC50 worked out at 170 nM.

With `Cc1cccc(C[C@@H]2NC(=O)[C@H](CC(=O)O)NC(=O)[C@H](Cc3ccc(OCC(=O)O)cc3)NC(=O)[C@H](CCCNC(=N)N)NC(=O)CSC[C@@H](C(N)=O)NC(=O)[C@H]([C@@H](C)O)NC(=O)[C@H](C(C)C)NC(=O)[C@H](CC3CCCCC3)NC(=O)[C@H](CCN)NC(=O)[C@@H](CC(C)C)NC(=O)[C@H](C)N(C)C(=O)[C@H](CCCNC(=O)CCCCCCCCCCC(=O)O)NC(=O)[C@H](Cc3ccc(-c4ccccc4)cc3)NC(=O)[C@H](Cc3ccc(O)cc3)NC2=O)c1` [Compound 1036] ({CH2CO}-RY(Carboxymethyl)D[Phe(3-Me)]Y[Bip][Orn](C12 diacid)[NMeA][dL][Dab][Cha]VTC-NH2; thioether N-14), the IC50 is 130 nM.

With `CC(C)C[C@H]1NC(=O)[C@H](C)N(C)C(=O)[C@H](C(C)C)NC(=O)[C@H](Cc2ccc(-c3ccccc3)cc2)NC(=O)[C@H](C(C)C)NC(=O)[C@H](Cc2c[nH]c3ccccc23)NC(=O)[C@H](CC(=O)O)NC(=O)[C@H](Cc2ccncc2)NC(=O)[C@H](Cc2ccc(CNC(=O)CCCCCCCCCCC(=O)O)cc2)NC(=O)CSC[C@@H](C(N)=O)NC(=O)[C@H](CO)NC(=O)[C@H](C(C)C)NC(=O)[C@H](CC2CCCCC2)NC(=O)[C@H](CC(N)=O)NC1=O` [Compound 1037] ({CH2CO}-[Phe(4-CH2NH2)](C12 diacid)[4Pal]DWV[Bip]V[NMeA][dL]N[Cha]VSC-NH2; thioether N-14), the IC50 is 120 nM.
